Measurements taken from US20230390267A1, “TREATMENT REGIMENS FOR EARLY IDIOPATHIC PARKINSON'S DISEASE” (BIAL - PORTELA & CA., S.A., priority 2020, published 2023).
Like-named read-outs stand apart in the source and are kept apart here.

Columns and labels:
[1] = tested on: patients with early idiopathic Parkinson's disease treated with levodopa/DDCI, with no signs of motor complications; details: human, in vivo, 24 weeks
Text: (§1) The term “treatment-emergent adverse event” is defined as any event not present before exposure to the study drug or any event already present that worsens in either intensity or frequency after first intake of study drug until 2 weeks after last intake of the study drug.
(§2) The factors evaluated include: • Treatment-emergent adverse events (TEAEs) including serious adverse events (SAEs) • Laboratory safety tests (biochemistry, hematology, coagulation and urinalysis) • Physical and neurological examinations • Vital signs • 12-lead ECG readings • Columbia-Suicide Severity Rating Scale (C-SSRS) • Modified Minnesota Impulsive Disorders Interview (mMIDI)

[2] = tested on: PD patients with motor fluctuations; details: cited from earlier work; for mean treatment effect versus placebo on absolute daily OFF-time: double-blind
[3] = tested on: PD patients with motor fluctuations; details: cited from earlier work
[4] = tested on: patients who switched from entacapone to opicapone or had lack of efficacy or adverse events with entacapone; details: patients who continued with opicapone beyond 6 months; cited from earlier work
[5] = tested on: PD patients with motor fluctuations; details: cited from earlier work; remark: listed apart in the source
[6] = tested on: PD patients with motor fluctuations; details: cited from earlier work; remark: listed apart in the source
[7] = adjunct opicapone to levodopa/benserazide, cited from earlier work
erythrocyte COMT = details: cynomolgus monkey; cited from earlier work
[8] = oral opicapone with levodopa; evident 24 hours after drug administration; cited from earlier work
S-COMT = details: peripheral tissues; cited from earlier work
[9] = tested on: MPTP treated parkinsonian primates; details: in vivo; cited from earlier work
COMT activity in brain = details: cited from earlier work
[10] = tested on: patients with early idiopathic Parkinson's disease treated with levodopa/DDCI, with no signs of motor complications; experiment: EPSILON Phase III study, safety (treatment emergent adverse events)
Text: as §1, §2

For `Cc1c(Cl)c(C)[n+]([O-])c(Cl)c1-c1noc(-c2cc(O)c(O)c([N+](=O)[O-])c2)n1` [opicapone, 2,5-dichloro-3-[5-(3,4-dihydroxy-5-nitrophenyl)-1,2,4-oxadiazol-3-yl]-4,6-dimethylpyridine 1-oxide], the “TEAE COVID-19; %” value [1] is given as “(8.5) %”, the “TEAE COVID-19; n” value [1] is given as 15 and the “OFF-time change from baseline at the end of the open-label phase” value ([2]; group that switched from placebo to opicapone) is given as 114.7 min. For the same compound, the “mean treatment effect versus placebo on absolute daily OFF-time” value ([2]; opicapone 25 mg, p=0.0106) was -35.1 min, the “OFF-time change from baseline at the end of the open-label phase” value ([2]; opicapone 50 mg throughout double-blind and open-label treatment) was -141.1 min and the “mean treatment effect versus placebo on absolute daily OFF-time” value ([2]; opicapone 50 mg, p<0.0001) was -58.1 min. The “placebo-adjusted reduction of OFF time” value ([2]; opicapone 50 mg, onset of motor fluctuations within the previous 2 years, p=0.0003) was -68.5 min, the “placebo-adjusted mean reduction of OFF time” value ([2]; opicapone 50 mg, patients only taking levodopa at baseline, p=0.02) was -65.6 min and the “placebo-adjusted reduction of OFF time” value ([2]; opicapone 50 mg, patients taking less than 600 mg of levodopa per day, p=0.0005) was -75.5 min. For the same compound, the “treatment difference in OFF time for opicapone 50 mg versus entacapone” value ([3]; p=0.05) was 26.2 min, the “additional OFF-time reduction after switch from entacapone” value ([3]; patients that ended open-label with opicapone 50 mg) was 68 min and the “mean reduction in OFF time measured by interview” value [4] was −2 hours per day. The “patients who reported they were improved” value ([5]; 3 months) was 76.9%, the “patients judged as having worsened” value ([5]; UK patients (n=95), 6 months) was 6.4% and the “patients judged as improved since commencing treatment” value ([5]; UK patients (n=95), 6 months) was 85.3%. The “patients judged as showing 'no change'” value ([5]; UK patients (n=95), 6 months) was 8.4%, the patients much improved ([5]; UK patients (n=95), 6 months) was 49.4% and the “patients very much improved” value ([5]; UK patients (n=95), 6 months) was 8.4%. The “patients reported as much or very much improved (CGI-C)” value ([5]; opicapone 50 mg, 3 months) was 43%, the “patients showing clinical improvement as judged by the investigators (CGI-C)” value ([5]; opicapone 50 mg, 3 months) was 71.3% and the “improvement in UPDRS ADL score” value ([5]; opicapone adjunct therapy) was 3.0 points. The “improvement in UPDRS motor score” value ([5]; opicapone adjunct therapy) was 4.6 points, the “mean±SD improvement in NMSS sleep/fatigue score versus baseline” value ([5]; p<0.0001) was −1.3+6.3 points and the “mean±SD improvement in NMSS total score versus baseline” value ([5]; p<0.0001) was −6.8±19.7 points. The “mean improvement in NMSS total score” value ([6]; 1-year open-label endpoint) was −4.2, the “change in NMSS sleep/fatigue score” value ([6]; opicapone 50 mg dose, vs −0.5 with placebo) was −1.2 points and the “increase of levodopa systemic exposure” value ([7]; Cmax not changed) was 2 fold. The “reduction of 3-O-methyldopa (3-OMD) exposure and Cmax” value [7] was “up to 7 fold”, the “reduction in erythrocyte COMT activity” value (erythrocyte COMT) was at most 85% and the brain levodopa levels [8] was “sustained increase in brain levodopa levels”. For the same compound, the “binding affinity to S-COMT” value (S-COMT) was “sub-picomolar”, the “motor function in MPTP treated parkinsonian primates” value [9] was “improvement in motor function” and the “effect on COMT activity in brain” value (COMT activity in brain) was “does not appear to have any effect”. The “Any Serious TEAE; %” value ([10]; double blind phase, N = 177) was “(5.1) %”, the “Any Serious TEAE; n” value ([10]; double blind phase, N = 177) was 9 and the “Any TEAE by Maximum Severity: Mild; %” value ([10]; double blind phase, N = 177) was “(29.9) %”. For the same compound, the “Any TEAE by Maximum Severity: Mild; n” value ([10]; double blind phase, N = 177) was 53, the “Any TEAE by Maximum Severity: Moderate; %” value ([10]; double blind phase, N = 177) was “(14.1) %” and the “Any TEAE by Maximum Severity: Moderate; n” value ([10]; double blind phase, N = 177) was 25. For the same compound, the “Any TEAE by Maximum Severity: Severe; %” value ([10]; double blind phase, N = 177) was “(3.4) %”, the “Any TEAE by Maximum Severity: Severe; n” value ([10]; double blind phase, N = 177) was 6 and the “Any TEAE by Worst Relationship: Definitely Related; %” value ([10]; double blind phase, N = 177) was “(1.1) %”. For the same compound, the “Any TEAE by Worst Relationship: Definitely Related; n” value ([10]; double blind phase, N = 177) was 2, the “Any TEAE by Worst Relationship: Not Related (first line, total incl. Unlikely Related); %” value ([10]; double blind phase, N = 177) was “(37.3) %” and the “Any TEAE by Worst Relationship: Not Related (first line, total incl. Unlikely Related); n” value ([10]; double blind phase, N = 177) was 66. The “Any TEAE by Worst Relationship: Not Related (second line, sub-category); %” value ([10]; double blind phase, N = 177) was “(36.2) %”, the “Any TEAE by Worst Relationship: Not Related (second line, sub-category); n” value ([10]; double blind phase, N = 177) was 64 and the “Any TEAE by Worst Relationship: Possibly Related; %” value ([10]; double blind phase, N = 177) was “(5.6) %”. The “Any TEAE by Worst Relationship: Possibly Related; n” value ([10]; double blind phase, N = 177) was 10, the “Any TEAE by Worst Relationship: Probably Related; %” value ([10]; double blind phase, N = 177) was “(3.4) %” and the “Any TEAE by Worst Relationship: Probably Related; n” value ([10]; double blind phase, N = 177) was 6. The “Any TEAE by Worst Relationship: Related; %” value ([10]; double blind phase, N = 177) was “(10.2) %”, the “Any TEAE by Worst Relationship: Related; n” value ([10]; double blind phase, N = 177) was 18 and the “Any TEAE by Worst Relationship: Unlikely Related; %” value ([10]; double blind phase, N = 177) was “(1.1) %”. The “Any TEAE by Worst Relationship: Unlikely Related; n” value ([10]; double blind phase, N = 177) was 2, the “Any TEAE leading to Death; %” value ([10]; double blind phase, N = 177) was “(0.6) %” and the “Any TEAE leading to Death; n” value ([10]; double blind phase, N = 177) was 1. The “Any TEAE leading to IMP interruption; %” value ([10]; double blind phase, N = 177) was “(0.6) %”, the “Any TEAE leading to IMP interruption; n” value ([10]; double blind phase, N = 177) was 1 and the “Any TEAE leading to Withdrawal; %” value ([10]; double blind phase, N = 177) was “(1.1) %”. For the same compound, the “Any TEAE leading to Withdrawal; n” value ([10]; double blind phase, N = 177) was 2, the “Any TEAE; %” value ([10]; double blind phase, N = 177) was “(47.5) %” and the “Any TEAE; n” value ([10]; double blind phase, N = 177) was 84. For the same compound, the “TEAE Arthralgia; %” value ([10]; double blind phase, N = 177) was “(2.3) %”, the “TEAE Arthralgia; n” value ([10]; double blind phase, N = 177) was 4 and the “TEAE Back pain; %” value ([10]; double blind phase, N = 177) was “(4.5) %”. The “TEAE Back pain; n” value ([10]; double blind phase, N = 177) was 8, the “TEAE Dizziness; %” value ([10]; double blind phase, N = 177) was “(1.1) %” and the “TEAE Dizziness; n” value ([10]; double blind phase, N = 177) was 2. For the same compound, the “TEAE Dyskinesia; %” value ([10]; double blind phase, N = 177) was “(1.7) %”, the “TEAE Dyskinesia; n” value ([10]; double blind phase, N = 177) was 3 and the “TEAE Fall; %” value ([10]; double blind phase, N = 177) was “(2.3) %”. The “TEAE Fall; n” value ([10]; double blind phase, N = 177) was 4, the “TEAE Fatigue; %” value ([10]; double blind phase, N = 177) was “(2.8) %” and the “TEAE Fatigue; n” value ([10]; double blind phase, N = 177) was 5. The “TEAE Gastrointestinal disorders; %” value ([10]; double blind phase, N = 177) was “(6.8) %”, the “TEAE Gastrointestinal disorders; n” value ([10]; double blind phase, N = 177) was 12 and the “TEAE General disorders; %” value ([10]; double blind phase, N = 177) was “(7.9) %”. The “TEAE General disorders; n” value ([10]; double blind phase, N = 177) was 14, the “TEAE Headache; %” value ([10]; double blind phase, N = 177) was “(0.6) %” and the “TEAE Headache; n” value ([10]; double blind phase, N = 177) was 1. The “TEAE Hypertension; %” value ([10]; double blind phase, N = 177) was “(2.8) %”, the “TEAE Hypertension; n” value ([10]; double blind phase, N = 177) was 5 and the “TEAE Infections and Infestations; %” value ([10]; double blind phase, N = 177) was “(15.8) %”. The “TEAE Infections and Infestations; n” value ([10]; double blind phase, N = 177) was 28, the “TEAE Injury, poisoning and procedural complications; %” value ([10]; double blind phase, N = 177) was “(3.4) %” and the “TEAE Injury, poisoning and procedural complications; n” value ([10]; double blind phase, N = 177) was 6. The “TEAE Insomnia; %” value ([10]; double blind phase, N = 177) was “(2.3) %”, the “TEAE Insomnia; n” value ([10]; double blind phase, N = 177) was 4 and the “TEAE Musculoskeletal and connective tissue disorders; %” value ([10]; double blind phase, N = 177) was “(10.2) %”. The “TEAE Musculoskeletal and connective tissue disorders; n” value ([10]; double blind phase, N = 177) was 18, the “TEAE Nausea; %” value ([10]; double blind phase, N = 177) was “(2.3) %” and the “TEAE Nausea; n” value ([10]; double blind phase, N = 177) was 4. The “TEAE Nervous System Disorders; %” value ([10]; double blind phase, N = 177) was “(13.6) %”, the “TEAE Nervous System Disorders; n” value ([10]; double blind phase, N = 177) was 24 and the “TEAE Oedema peripheral; %” value ([10]; double blind phase, N = 177) was “(2.3) %”. The “TEAE Oedema peripheral; n” value ([10]; double blind phase, N = 177) was 4, the “TEAE On and off phenomenon; %” value ([10]; double blind phase, N = 177) was “(4.5) %” and the “TEAE On and off phenomenon; n” value ([10]; double blind phase, N = 177) was 8. For the same compound, the “TEAE Psychiatric disorders; %” value ([10]; double blind phase, N = 177) was “(7.9) %”, the “TEAE Psychiatric disorders; n” value ([10]; double blind phase, N = 177) was 14 and the “TEAE Tremor; %” value ([10]; double blind phase, N = 177) was “(1.1) %”. For the same compound, the “TEAE Tremor; n” value ([10]; double blind phase, N = 177) was 2, the “TEAE Upper respiratory tract infection; %” value ([10]; double blind phase, N = 177) was “(0.6) %” and the “TEAE Upper respiratory tract infection; n” value ([10]; double blind phase, N = 177) was 1. For the same compound, the “TEAE Urinary tract infection; %” value ([10]; double blind phase, N = 177) was “(2.3) %”, the “TEAE Urinary tract infection; n” value ([10]; double blind phase, N = 177) was 4 and the “TEAE Vascular disorders; %” value ([10]; double blind phase, N = 177) was “(5.6) %”. The “TEAE Vascular disorders; n” value ([10]; double blind phase, N = 177) was 10, the “TEAE Vomiting; %” value ([10]; double blind phase, N = 177) was “(1.7) %” and the “TEAE Vomiting; n” value ([10]; double blind phase, N = 177) was 3. For the same compound, the “increase in treatment emergent adverse events including nervous system disorders such as dyskinesia” value ([10]; opicapone-treated patients vs placebo) was “no increase” and the tolerability ([10]; patients without clinically diagnosed motor complications) was “well tolerated”.
